This passage reports IC50 results from US20240043439A1, “COMPOUNDS AS C5AR INHIBITORS” (Kira Pharmaceuticals (Suzhou) Ltd., priority 2020, published 2024).

Broadly, the IC50 is the concentration that gives 50% inhibition.

Experiment [1] concerns the target human C5a receptor (C5aR) (Homo sapiens (Human), UniProt P21730). The experiment can be described thus: Inhibition of C5a-C5aR binding (biotinylated human C5a, U937/C5aR cells, FACS). As for the experimental part: U937 cells were originally obtained from the American Type Culture Collection (ATCC) and transfected with human C5a receptor (C5aR). U937/C5aR cells were cultured at 37° C., 5% CO2 in RPMI1640 (Gibco) supplemented with 10% FBS (Gibco) and 350 µg/ml Geneticin (Gibco) and passaged every 3 days to maintain the density range from […] to 2×10^6 cells/ml.
Human C5a biotinylation was performed according to the procedure provided by manufacturer (Thermo Scientific, A39257). 10 mM solution of Sulfo-NHS-LC-Biotin was prepared by adding 180μl ultrapure H2O to the 1 mg vial immediately. 12 μl 10 mM biotin reagent was added to […] human C5a solution, gently pipetted for 3 seconds, and incubated on ice for 2 hours. Amicon ultra-0.5 centrifuge filter device (Millipore, UFC5003BK) was pre-rinsed with Milli-Q H2O, centrifuged at 14000 g for 5 min immediately before use. Up to […] sample (diluted by PBS) was added to the device and capped. The device was spinned at 14000 g for approximately 5 min. 250 μl PBS was added to the filter device, spinned at 14000 g for 5 min, and repeatedly washed 6 times. The filter device was separated from the microcentrifuge tube and placed upside down in a clean microcentrifuge tube, spinned for 2 min at 1000 g to transfer the concentrated sample from the device to the tube.
U937/C5aR cells were collected and washed twice by PBS, cells were suspended in PBS+0.1% BSA buffer at the density of 3×10^6 cells/ml. 100 μl cell suspension was added to a 96 well microplate. 50 μl compound diluted in assay buffer and 50 μl biotinylated ligand human C5a (30 nM) were added to corresponding wells in order and the plate was incubated on ice for 120 min and then centrifuged at 1000 rpm for 3-5 min at 4° C. Supernatant was removed and cells were washed by pre-cold PBS twice. 100 μl FITC conjugated streptavidin was added to cells, incubated on ice for another 30 min, and then centrifuged at 1000 rpm for 3-5 min at 4° C. Supernatant was removed and cells were washed by pre-cold PBS twice. 150 μl PBS was added to suspend the cells and signals were detected by FACS (Beckman, Cytoflex).

The next experiment deals with C5aR (Homo sapiens (Human), UniProt P21730). The experiment can be described thus: Calcium mobilization (U937/C5aR or HEK293/C5aR cells, FLIPR). Type of experiment: cell-based. To be noted: agonist human C5a at EC80, FLIPR. In a few lines:
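FLIPR calcium-flux read-out using Fluo-4 Direct-loaded C5aR-expressing U937 or HEK293 cells stimulated with human C5a at its EC80. Compound was applied for 60 min before dye loading (50 min at 37 °C plus 10 min at room temperature) and agonist addition.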
(Calcium assays in cells follow changes in intracellular calcium, usually with a dye or a luminescent sensor.)

Sequence of human C5a receptor (C5aR) (P21730 whole entry): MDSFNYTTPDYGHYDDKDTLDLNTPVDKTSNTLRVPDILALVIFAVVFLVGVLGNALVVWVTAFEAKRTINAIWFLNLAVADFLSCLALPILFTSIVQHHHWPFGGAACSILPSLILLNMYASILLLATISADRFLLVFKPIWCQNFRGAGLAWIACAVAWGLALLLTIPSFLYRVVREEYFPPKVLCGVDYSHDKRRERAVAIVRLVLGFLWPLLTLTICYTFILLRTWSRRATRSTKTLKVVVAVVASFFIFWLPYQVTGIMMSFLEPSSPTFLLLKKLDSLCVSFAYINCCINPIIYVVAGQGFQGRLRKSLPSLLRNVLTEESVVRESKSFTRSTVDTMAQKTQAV
Sequence of C5aR (P21730 whole entry): as above

Regarding `Cc1cccc(F)c1C(=O)N1C2COC[C@@H]2C[C@H](C(=O)Nc2ccccc2)[C@@H]1c1ccc(NC2CCOCC2)cc1` (relative stereo) [Compound 129, cis-1-(2-fluoro-6-methylbenzoyl)-N-phenyl-2-(4-((tetrahydro-2H-pyran-4-yl)amino)phenyl)octahydrofuro[3,4-b]pyridine-3-carboxamide], the IC50 is 2000 to 5000 nM in experiment [1] and 2000 to 10000 nM on C5aR.
Take `Cc1cccc(F)c1C(=O)N1C(c2ccc(NC3CCCC3)cc2)C(C(=O)Nc2ccc3c(c2)CCNC3)C[C@@H]2CCC[C@@H]21` (relative stereo) [Compound 184, cis-2-(4-(cyclopentylamino)phenyl)-1-(2-fluoro-6-methylbenzoyl)-N-(1,2,3,4-tetrahydroisoquinolin-6-yl)octahydro-1H-cyclopenta[b]pyridine-3-carboxamide]: the figures for the IC50 (in experiment [1]; on C5aR) were 2000 to 5000 nM and 2000 to 10000 nM, respectively.
In the same order, the values of `Cc1cccc(F)c1C(=O)N1C(c2ccc(N(C)C3CCCC3)cc2)C(C(=O)Nc2ccc3c(c2)CCN(C)C3)C[C@@H]2CCC[C@@H]21` (relative stereo) [Compound 201, cis-2-(4-(cyclopentyl(methyl)amino)phenyl)-1-(2-fluoro-6-methylbenzoyl)-N-(2-methyl-1,2,3,4-tetrahydroisoquinolin-6-yl)octahydro-1H-cyclopenta[b]pyridine-3-carboxamide] are over 5000 nM and 2000 to 10000 nM.
In the same order, the values of `Cc1ccc(NC(=O)[C@H]2CCCN(c3ccnc(Cl)n3)[C@H]2c2ccc(NC3CCCC3)cc2)cc1C(F)(F)F` [Compound 2, (2R,3S)-1-(2-chloropyrimidin-4-yl)-2-(4-(cyclopentylamino)phenyl)-N-(4-methyl-3-(trifluoromethyl)phenyl)piperidine-3-carboxamide] are 2000 to 5000 nM and 2000 to 10000 nM.
In the same order, the values of `Cc1ccc(NC(=O)[C@H]2CCCN(c3ccncn3)[C@H]2c2ccc(NC3CCCC3)cc2)cc1C(F)(F)F` [Compound 4, (2R,3S)-2-(4-(cyclopentylamino)phenyl)-N-(4-methyl-3-(trifluoromethyl)phenyl)-1-(pyrimidin-4-yl)piperidine-3-carboxamide] are 2000 to 5000 nM and 2000 to 10000 nM.
As for `Cc1ccc(NC(=O)[C@H]2CCCN(c3nccc4cccnc34)[C@H]2c2ccc(NC3CCCC3)cc2)cc1C(F)(F)F` [Compound 6, (2R,3S)-2-(4-(cyclopentylamino)phenyl)-N-(4-methyl-3-(trifluoromethyl)phenyl)-1-(1,7-naphthyridin-8-yl)piperidine-3-carboxamide], the IC50 was in the range of 500 to 2000 nM in experiment [1] and 2000 to 10000 nM at C5aR.
As for `Cc1ccc(NC(=O)[C@@H]2CCCN(c3ncnc4cccnc34)[C@H]2c2ccc(NC3CCCC3)cc2)cc1C(F)(F)F` [Compound 7, (2R,3R)-2-(4-(cyclopentylamino)phenyl)-N-(4-methyl-3-(trifluoromethyl)phenyl)-1-(pyrido[3,2-d]pyrimidin-4-yl)piperidine-3-carboxamide], the IC50 in experiment [1] was in the range of 2000 to 5000 nM; at C5aR, 2000 to 10000 nM.
For `Cc1ccc(NC(=O)[C@H]2CCCN(S(=O)(=O)c3c(C)noc3C)[C@H]2c2ccc(NC3CCCC3)cc2)cc1C(F)(F)F` [Compound 8, (2R,3S)-2-(4-(cyclopentylamino)phenyl)-1-((3,5-dimethylisoxazol-4-yl)sulfonyl)-N-(4-methyl-3-(trifluoromethyl)phenyl)piperidine-3-carboxamide] the same measures were 2000 to 5000 nM and 2000 to 10000 nM.
For `Cc1ccc(S(=O)(=O)N2CCC[C@H](C(=O)Nc3ccc(C)c(C(F)(F)F)c3)[C@@H]2c2ccc(NC3CCCC3)cc2)c(C)c1` [Compound 9, (2R,3S)-2-(4-(cyclopentylamino)phenyl)-1-((2,4-dimethylphenyl)sulfonyl)-N-(4-methyl-3-(trifluoromethyl)phenyl)piperidine-3-carboxamide] the same measures were 2000 to 5000 nM and 2000 to 10000 nM.
In the same order, the values of `Cc1ccc(C)c(S(=O)(=O)N2CCC[C@H](C(=O)Nc3ccc(C)c(C(F)(F)F)c3)[C@@H]2c2ccc(NC3CCCC3)cc2)c1` [Compound 10, (2R,3S)-2-(4-(cyclopentylamino)phenyl)-1-((2,5-dimethylphenyl)sulfonyl)-N-(4-methyl-3-(trifluoromethyl)phenyl)piperidine-3-carboxamide] are 500 to 2000 nM and over 10000 nM.
`Cc1ccc(NC(=O)[C@H]2CCCN(S(=O)(=O)c3c(C)cccc3C)[C@H]2c2ccc(NC3CCCC3)cc2)cc1C(F)(F)F` [Compound 11, (2R,3S)-2-(4-(cyclopentylamino)phenyl)-1-((2,6-dimethylphenyl)sulfonyl)-N-(4-methyl-3-(trifluoromethyl)phenyl)piperidine-3-carboxamide]: the IC50 in experiment [1] was 500 to 2000 nM; at C5aR, 2000 to 10000 nM.
For `Cc1cc(C)c(S(=O)(=O)N2CCC[C@H](C(=O)Nc3ccc(C)c(C(F)(F)F)c3)[C@@H]2c2ccc(NC3CCCC3)cc2)c(C)c1` [Compound 13, (2R,3S)-2-(4-(cyclopentylamino)phenyl)-1-(mesitylsulfonyl)-N-(4-methyl-3-(trifluoromethyl)phenyl)piperidine-3-carboxamide] the same measures were 2000 to 5000 nM and 2000 to 10000 nM.
In the same order, the values of `Cc1ccc(NC(=O)[C@H]2CCCN(S(=O)(=O)c3ccccc3[N+](=O)[O-])[C@H]2c2ccc(NC3CCCC3)cc2)cc1C(F)(F)F` [Compound 14, (2R,3S)-2-(4-(cyclopentylamino)phenyl)-N-(4-methyl-3-(trifluoromethyl)phenyl)-1-((2-nitrophenyl)sulfonyl)piperidine-3-carboxamide] are 2000 to 5000 nM and 2000 to 10000 nM.
For `Cc1ccc(NC(=O)[C@H]2CCCN(S(=O)(=O)c3ccc(F)cc3C)[C@H]2c2ccc(NC3CCCC3)cc2)cc1C(F)(F)F` [Compound 15, (2R,3S)-2-(4-(cyclopentylamino)phenyl)-1-((4-fluoro-2-methylphenyl)sulfonyl)-N-(4-methyl-3-(trifluoromethyl)phenyl)piperidine-3-carboxamide], the results for the IC50 (in experiment [1]; on C5aR) were 2000 to 5000 nM and 2000 to 10000 nM, respectively.
For `Cc1ccc(NC(=O)[C@H]2CCCN(S(=O)(=O)c3cccc(Cl)c3C)[C@H]2c2ccc(NC3CCCC3)cc2)cc1C(F)(F)F` [Compound 16, (2R,3S)-1-((3-chloro-2-methylphenyl)sulfonyl)-2-(4-(cyclopentylamino)phenyl)-N-(4-methyl-3-(trifluoromethyl)phenyl)piperidine-3-carboxamide] the same measures were 2000 to 5000 nM and over 10000 nM.
For `Cc1ccc(NC(=O)[C@H]2CCCN(S(=O)(=O)c3cc(F)ccc3C)[C@H]2c2ccc(NC3CCCC3)cc2)cc1C(F)(F)F` [Compound 17, (2R,3S)-2-(4-(cyclopentylamino)phenyl)-1-((5-fluoro-2-methylphenyl)sulfonyl)-N-(4-methyl-3-(trifluoromethyl)phenyl)piperidine-3-carboxamide] the same measures were 500 to 2000 nM and 2000 to 10000 nM.
For `Cc1ccc(NC(=O)[C@H]2CCCN(S(=O)(=O)c3cccc(F)c3C)[C@H]2c2ccc(NC3CCCC3)cc2)cc1C(F)(F)F` [Compound 18, (2R,3S)-1-((3-fluoro-2-methylphenyl)sulfonyl)-2-(4-(cyclopentylamino)phenyl)-N-(4-methyl-3-(trifluoromethyl)phenyl)piperidine-3-carboxamide] the same measures were 2000 to 5000 nM and over 10000 nM.
`Cc1ccc(NC(=O)[C@H]2CCCN(S(=O)(=O)c3c(F)cccc3F)[C@H]2c2ccc(NC3CCCC3)cc2)cc1C(F)(F)F` [Compound 19, (2R,3S)-2-(4-(cyclopentylamino)phenyl)-1-((2,6-difluorophenyl)sulfonyl)-N-(4-methyl-3-(trifluoromethyl)phenyl)piperidine-3-carboxamide]: the values for the IC50 (in experiment [1]; on C5aR) were 2000 to 5000 nM and 2000 to 10000 nM, respectively.
For `Cc1ccc(NC(=O)[C@H]2CCCN(S(=O)(=O)c3c(Cl)cccc3Cl)[C@H]2c2ccc(NC3CCCC3)cc2)cc1C(F)(F)F` [Compound 20, (2R,3S)-2-(4-(cyclopentylamino)phenyl)-1-((2,6-dichlorophenyl)sulfonyl)-N-(4-methyl-3-(trifluoromethyl)phenyl)piperidine-3-carboxamide] the same measures were 2000 to 5000 nM and over 10000 nM.
